# Where a name gives a salt, the structure may show the parent alone. Read-outs that look alike come from different tables or passages of the source.
# Experiments:
# [1] = system: crisis produced with electroshock; test: Electroshock (M.E.S.), protection from extensor phase of hind paws; assay type: in vivo, male albine Swiss mice; conditions: Mus musculus
# Description: (§1) The preferred method is that according to Schotten-Baumann. […] Preferably an excess of the same amine is used both as acid binding substance and as solvent. If the amine is a low-boiling one the reaction is carried out in a sealed tube while if the amine has a high-boiling point is preferred to operate at the boiling temperature of the reaction mixture. […] Materials and methods. The animals used in the tests, unless otherwise indicated, were male albine Swiss mice weighing 19-23 g; each animal has been used only once.
# (§2) Electroshock (M.E.S.). The method followed in performing the electroshock is C. H. Cashin and J. Jackson's method (J.Pharm.Pharmacol.,1962, 14 (supl.) 445) modified as follows: the electrodes are placed in the outer ear which is, before the shock, filled with a physiological solution. The applied voltage is of 92 volts with a current of 50 Hz stabilized with Selonix H.T. 4420 stabilizer; duration of shock 0.2 seconds. […] (E. A. Swinyard, W. C. Brown; L. S. Goodman, J. Pharmacol., 1952, 106, 319) Schock by cardiazol (M.M.S.). 38 mg/kg of cardiazol, under the form of a 0.38% aqueous solution, is quickly injected in the dorsal vein of the mouse tail (L. S. Goodman, M. Singh Grewal, W. C. Brown, E. A. Swinyard, J. Pharmacol. 1953, 108, 168). The animals are considered as protected when the extensor phase of the hind paws is eliminated during the tonic crisis. The so obtained data have been elaborated by calculating the ED50 and the LD50 according to Lichtfield-Wilcoxon's method (J. Pharmacol. 1949, 96, 99).
# [2] = system: crisis produced with cardiazol; test: Schock by cardiazol (M.M.S.), protection from extensor phase of hind paws; assay type: in vivo, male albine Swiss mice; conditions: Mus musculus
# Description: as §1, §2
# in vivo = conditions: mouse, ip
# Description: as §1, §2
# [3] = sc, 0.5 h, new compounds (Table 2), under skin, 30 minutes ante, as hydrochlorides, read-out: ED50 M.E.S.
# [4] = sc, 0.5 h, new compounds (Table 2), under skin, 30 minutes ante, as hydrochlorides, cardiazol 38 mg/kg i.v., read-out: ED50 M.M.S.
# [5] = sc, 0.5 h, read-out: M.M.S. ED50
# [6] = sc, 0.5 h, reference compounds (Table 1), under skin, 30 minutes ante, cardiazol 38 mg/kg i.v., read-out: M.M.S. ED50
# [7] = sc, 0.5 h, reference compounds (Table 1), under skin, 30 minutes ante, read-out: M.E.S.-ED50
smiles,measurement,setting,value
O=C(CCN1CCCC1)NC1[C@H](c2ccccc2)[C@H]1c1ccccc1 (relative stereo) [cis-trans (line b76)],ED50,[1]; [3],24 mg/kg
same,ED50,[2]; [4],20 mg/kg
O=C(CCN1CCCCC1)NC1[C@H](c2ccccc2)[C@H]1c1ccccc1 (relative stereo) [cis-trans (line b79)],ED50,[1]; [3],16 mg/kg
same,ED50,[2]; [4],15 mg/kg
CN1CCN(CCC(=O)NC2[C@H](c3ccccc3)[C@H]2c2ccccc2)CC1 (relative stereo) [cis-trans (line b82)],ED50,[1]; [3],275 mg/kg
"CCN(CC)CCC(=O)NC1[C@H](c2ccccc2)[C@H]1c1ccccc1 (relative stereo) [cis-trans, R1 = C2 H5, R2 = C2 H5, N-(beta-diethylamino)propionyl-2,3 -cis,trans-diphenylcyclopropylamine]",LD50 at 72 h,in vivo,79 mg/kg
same,ED50,[1]; [3],33.5 mg/kg
same,ED50,[2]; [4],27 mg/kg
"CN(CCC(=O)NC1[C@H](c2ccccc2)[C@H]1c1ccccc1)Cc1ccccc1 (relative stereo) [cis-trans, R1 = CH3, R2 = CH2 --C6 H5, N-[beta-(N'-benzyl)methylamino]propionyl-2,3-cis,trans-diphenylcyclopropylamine hydrochloride]",ED50,[1]; [3],91 mg/kg
same,ED50,[2]; [4],98 mg/kg
"CN(C)CCC(=O)NC1[C@H](c2ccccc2)[C@H]1c1ccccc1 (relative stereo) [cis-trans, R1 = CH3, R2 = CH3, N-(beta-dimethylamino)propionyl-2,3 -cis,trans-diphenylcyclopropylamine]",LD50 at 72 h,in vivo,88 mg/kg
same,ED50,[1]; [3],21.8 mg/kg
same,ED50,[2]; [4],16.5 mg/kg
"CCNCCC(=O)NC1[C@H](c2ccccc2)[C@H]1c1ccccc1 (relative stereo) [cis-trans, R1 = H, R2 = C2 H5, N-(beta-ethylamino)propionyl- 2,3 -cis,trans-diphenylcyclopropylamine hydrochloride]",LD50 at 72 h,in vivo,89.5 mg/kg
same,ED50,[1]; [3],> 90 mg/kg
same,ED50,[2]; [4],> 90 mg/kg
"CNCCC(=O)NC1[C@H](c2ccccc2)[C@H]1c1ccccc1 (relative stereo) [cis-trans, R1 = H, R2 = CH3, N-(beta-methylamino)-propionyl-2,3 -cis,trans-diphenyl cyclopropylamine hydrochloride]",LD50 at 72 h,in vivo,120 mg/kg
same,ED50,[1]; [3],> 120 mg/kg
same,ED50,[2]; [4],> 120 mg/kg
"CCC1(c2ccccc2)C(=O)NC(=O)NC1=O [Phenobarbital sodium salt, reference compound]",LD50 at 72 h,in vivo; in vivo,182 mg/kg
same,ED50,"[1]; sc, 0.5 h, read-out: M.E.S.-ED50",35 mg/kg
same,ED50,[2]; [5],4.5 mg/kg
"CN(C)C(=O)Nc1ccccc1 [Phenurone, 1,1-dimethyl-3-phenyl-urea, reference compound]",ED50,"[1]; po, 1 h, read-out: M.E.S.-ED50",115 mg/kg
same,ED50,"[2]; po, 1 h, read-out: M.M.S. ED50",50 mg/kg
"CN1C(=O)OC(C)(C)C1=O [Trimethadione, reference compound]",ED50,[2]; [5],175 mg/kg
"CCC1(C)CC(=O)NC1=O (centres unmarked) [ethosuximide, reference compound]",ED50,[2]; [6],50 mg/kg
"Cc1ccccc1OCC(O)CO (centres unmarked) [mephenesin, reference compound]",ED50,[1]; [7],245 mg/kg
same,ED50,[2]; [6],180 mg/kg
"O=C1NC(=O)C(c2ccccc2)(c2ccccc2)N1 [phenitoine sodium salt, reference compound]",LD50 at 72 h,in vivo; in vivo,120 mg/kg
same,ED50,[1]; [7],15 mg/kg
same,ED50,[2]; [6],7.1 mg/kg
"CCC1(c2ccccc2)C(=O)NCNC1=O [primidone, reference compound]",ED50,"[2]; po, reference compound (Table 1), per os, 6 hours ante, cardiazol 38 mg/kg i.v., read-out: M.M.S. ED50",5.2 mg/kg
